From the supplement of paper PMC10307832

Legend:
Experiment in all cases: relative viability (nuclei count vs DMSO), 5 days (fraction); higher = more cells survive
[1] = compound: COc1cc(Nc2ncc3c(n2)-c2ccc(Cl)cc2C(c2c(F)cccc2OC)=NC3)ccc1C(=O)O [Alisertib] + NC(=O)Nc1cc(-c2cccc(F)c2)sc1C(=O)N[C@H]1CCCNC1 [AZD7762] (partner 0.2 µM)
Outline: (§1)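 One day after seeding in 1536-well plates, lung cancer cell lines were dosed by pin tool. Dosing was either single-drug or a fixed anchor-drug dose plus five library-drug doses (not always all listed) in √10 steps. After 5 days, nuclei were stained in one fix-and-stain step and counted on 4× images, and relative viability is the nuclei count of treated wells over that of vehicle wells, given as the median of duplicate plates.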

[2] = compound: COc1cc(Nc2ncc3c(n2)-c2ccc(Cl)cc2C(c2c(F)cccc2OC)=NC3)ccc1C(=O)O [Alisertib] + Nc1nc2[nH]cc(CCc3ccc(C(=O)N[C@@H](CCC(=O)O)C(=O)O)cc3)c2c(=O)[nH]1 [Pemetrexed] (partner 0.2 µM)
Outline: as §1

[3] = compound: COc1cc(Nc2ncc3c(n2)-c2ccc(Cl)cc2C(c2c(F)cccc2OC)=NC3)ccc1C(=O)O [Alisertib] + COc1cc2c(Oc3ccc(NC(=O)C4(C(=O)Nc5ccc(F)cc5)CC4)cc3F)ccnc2cc1OCCCN1CCOCC1 [Foretinib] (partner 0.25 µM)
Outline: as §1

[4] = compound: COc1cc(Nc2ncc3c(n2)-c2ccc(Cl)cc2C(c2c(F)cccc2OC)=NC3)ccc1C(=O)O [Alisertib] + COc1cccc2cc(-c3nc([C@H]4CC[C@H](C(=O)O)CC4)n4ncnc(N)c34)[nH]c12 [OSI-027] (partner 0.5 µM)
Outline: as §1

| Cell Line | relative viability ([1]; first compound 0.005 µM) | relative viability ([1]; first compound 0.01581 µM) | relative viability ([1]; first compound 0.05 µM) | relative viability ([1]; first compound 0.1581 µM) | relative viability ([1]; first compound 0.5 µM) | relative viability ([2]; first compound 0.005 µM) | relative viability ([2]; first compound 0.01581 µM) | relative viability ([2]; first compound 0.05 µM) | relative viability ([2]; first compound 0.1581 µM) | relative viability ([2]; first compound 0.5 µM) | relative viability ([3]; first compound 0.005 µM) | relative viability ([3]; first compound 0.01581 µM) | relative viability ([3]; first compound 0.05 µM) | relative viability ([3]; first compound 0.1581 µM) | relative viability ([3]; first compound 0.5 µM) | relative viability ([4]; first compound 0.005 µM) | relative viability ([4]; first compound 0.01581 µM) | relative viability ([4]; first compound 0.05 µM) | relative viability ([4]; first compound 0.1581 µM) | relative viability ([4]; first compound 0.5 µM) |
| --- | --- | --- | --- | --- | --- | --- | --- | --- | --- | --- | --- | --- | --- | --- | --- | --- | --- | --- | --- | --- |
| HARA | 0.28 | 0.567 | 0.339 | 0.217 | 0.0911 | 0.262 | 0.211 | 0.26 | 0.21 | 0.125 | 0.864 | 0.663 | 0.316 | 0.148 | 0.101 | 0.409 | 0.423 | 0.369 | 0.113 | 0.0564 |
| NCI-H2126 | 0.936 | 0.965 | 0.883 | 0.466 | 0.288 | 0.639 | 0.641 | 0.602 | 0.316 | 0.276 | 1.08 | 1.02 | 0.455 | 0.294 | 0.382 | 0.721 | 0.696 | 0.588 | 0.318 | 0.36 |
| LXF-289 | 0.922 | 0.637 | 0.682 | 0.163 | 0.138 | 0.794 | 0.61 | 0.376 | 0.169 | 0.174 | 0.858 | 0.675 | 0.218 | 0.187 | 0.157 | 0.637 | 0.656 | 0.461 | 0.123 | 0.0861 |
| NCI-H460 | 0.66 | 0.667 | 0.232 | 0.0611 | 0.0558 | 0.0584 | 0.0653 | 0.0683 | 0.0474 | 0.0488 | 0.98 | 0.956 | 0.283 | 0.0899 | 0.0482 | 0.618 | 0.578 | 0.218 | 0.0256 | 0.0214 |
| NCI-H1395 | 0.363 | 0.403 | 0.37 | 0.376 | 0.361 | 0.725 | 0.766 | 0.574 | 0.413 | 0.353 | 0.895 | 0.916 | 0.696 | 0.561 | 0.38 | 0.521 | 0.605 | 0.527 | 0.415 | 0.356 |
| NCI-H2170 | 0.85 | 0.608 | 0.59 | 0.199 | 0.176 | 0.267 | 0.282 | 0.236 | 0.209 | 0.183 | 0.715 | 0.972 | 0.605 | 0.563 | 0.181 | 0.721 | 0.629 | 0.644 | 0.323 | 0.201 |
